This is an account of results in article PMC11311998, “AR71, Histamine H3 Receptor Ligand—In Vitro and In Vivo Evaluation (Anti-Inflammatory Activity, Metabolic Stability, Toxicity, and Analgesic Action)” (International Journal of Molecular Sciences, 2024).

One may read the pIC50 as the IC50 on a negative log10 scale, so that one unit is a factor of ten. Read a high pIC50 as a low IC50.

For one series, the system named is BV-2 cells. As to the kind of experiment: cytokine/chemokine panel in LPS-stimulated microglia (Luminex). The format is cell-based, mouse. The source says: In the research presented in this paper, we extended the study of the anti-inflammatory properties of AR71 by analysing the panel of cytokines/chemokines in mouse microglia with the Luminex® platform. We applied MILLIPLEX® Magnetic Bead Panel that consists of nine different analytes regarding inflammation. Some of the analytes were below the limit of quantification, and the reason for this is explained in the text.
BV-2 cells (the murine microglial cell line) were purchased from the Interlab Cell Line Collection (ICLC) cell bank (ICLC, Genova, Italy). The cells were cultured in DMEM medium (Gibco no. 61965-026, ThermoFisher Scientific, Waltham, MA, USA) containing 10% charcoal-stripped foetal bovine serum (CS-FBS, Biowest no. S181f, batch no. S00NP) in a humidified incubator containing 95% air and 5% CO2 at 37 °C. CS-FBS was used to study the effect of compounds on neuroinflammation in vitro without the confounding effects of some cytokines that are naturally present in serum. Experiments were carried out with BV-2 cells from passages 7 to 13.
The Luminex assay is a form of immunoassay that utilises magnetic microparticles and the same sandwiching techniques as ELISAs. To analyse the panel of cytokines/chemokines in mouse microglia, we used a MILLIPLEX® Magnetic Bead Panel (MCYTOMAG-70K, Millipore, Sigma-Aldrich, Darmstadt, Germany). The following analytes were studied: IFN-γ, IL-1β, IL-4, IL-6, IL-10, IL-12 (p40), IP-10, MIP-2, and TNF-α. The preparation of antibody-immobilised beads, quality controls, mouse cytokine standard, and immunoassay procedure, were performed according to the manufacturer’s protocol. All standards, quality controls, and samples were analysed in duplicate on the Luminex 200 multiplexing instrument (Luminex Corp, Austin, TX, USA). Sample analyte concentrations were determined using Belysa 1.1.0 curve-fitting software and the standard curve data from each run (Millipore, Sigma-Aldrich, Darmstadt, Germany). To perform multiplex cytokine analysis, BV-2 cells (150 × 10^3 cells/well/500 μL in 24-well plate) were pre-treated for 1 h with AR71, and then LPS (1 μg/mL) was added to induce inflammation. The cells were cultured for another 24 h. After this time, cell culture supernatants were collected, centrifuged to remove cell debris, and stored at −80 °C for analysis. To avoid multiple freeze/thaw cycles, the samples were aliquoted.

A further series concerns human astrocytes. As to the kind of experiment: viability of human astrocytes (MTT assay). Format: cell-based. Conditions: for pIC50: Homo sapiens, Astrocyte. The protocol: We investigated the effect of AR71 in a wide range of concentrations (0.78–100 μM) on the viability of human astrocyte cell lines after 2, 24, 48, and 72 h of incubation (Figure 6). Prolonged incubation of human astrocytes with AR71 caused a dose-dependent decrease in cell viability.
The astrocyte cell line from the human cerebral cortex was purchased from ScienCell Research Laboratories (San Diego, CA, USA; Cat no. 1800) and maintained according to the protocol recommended by the company (the ScienCell Research Laboratories’ protocol).
The colorimetric MTT assay using 3-(4,5-dimethylthiazol-2-yl)-2,5-diphenyltetrazolium bromide (MTT; Sigma-Aldrich Chemical Co. Ltd., Saint Louis, MO, USA) was used for evaluation of astrocytes viability. The experiment was carried out following the procedure described in detail previously. Astrocytes were seeded onto 96-well plates at a final density of 10 × 10^3 cells/well. Following 24 h of culture, the cells were treated with AR71 (0.78–100 μM) for […], 24, 48, or 72 h. After the respective incubation periods, MTT solution was added to the cell culture for another four hours. Absorbance was measured at 570 nm using a BioTek EL 800× microplate reader (BioTek, Winooski, VT, USA), with the value directly proportional to the number of viable cells. Cell viability was calculated by the following formula: Viability [%] = (A/AC) × 100%, where A represents the absorbance of the investigated sample and AC represents the absorbance of the negative control (untreated cells). The positive control (vehicle) was 0.1% DMSO.
(Tetrazolium assays rely on reduction of a dye to a coloured formazan, in cell work by metabolically active cells.)

For the next series, the system named is SH-SY5Y cells. The format is cell-based, human. The following applies: without rotenone. The protocol: To test neuroprotective activity, SH-SY5Y cells were pre-treated for 1 h with various concentrations of AR71, after which rotenone (6.25 μM) was added and the cells were cultured for another 24 h. […] Co-treatment with AR71 protected cells from the toxic effect of rotenone, resulting in LDH leakage ranging from 10 to 22% only.
The protective effect of AR71 against rotenone-induced toxicity in SH-SY5Y cells was assessed by measuring LDH release. SH-SY5Y cells (6 × 10^3 cells/100 μL/well) were seeded in black 96-well plates Nunclon^TM Delta Surface no. 137101 (ThermoFischer Scientific, Waltham, MA, USA) and cultured overnight. The next day, the medium was removed and replaced with a fresh one with an increasing concentration of AR71 (0.0975–50 μM). After 1 h of compound pre-treatment, the neurotoxin rotenone (6.25 μM) was added, and the cells were cultured for another 24 h. For the negative and positive controls, cells were treated with 0.1% DMSO and 6.25 μM of rotenone alone, respectively. The cells treated with the compound alone were used to compare the effect with those co-treated with rotenone. After 24 h, the level of LDH leakage was measured by the CytoTox-ONE™ Homogeneous Membrane Integrity Assay (Promega, Madison, WI, USA) following the manufacturer’s protocol. Briefly, 100 μL of CytoTox-ONE™ reagent (Promega, Madison, WI, USA) was added to each well, and the cells were incubated for 10 min at room temperature protected from light. The fluorescence was measured using the multimode plate reader Tecan Spark (Tecan, Männedorf, Switzerland) with an excitation wavelength of 560 nm and an emission wavelength of 590 nm.

Where [1] appears, read: 1 h pre-treatment, LPS 1 μg/mL, 24 h.

pIC50: −log10 of the molar value.

Turning to `COc1cc(/C=C/C(=O)c2ccc(OCCCN3CCCCC3)cc2)cc(OC)c1OC` [AR71, (E)-3-(3,4,5-trimethoxyphenyl)-1-(4-(3-(piperidin-1-yl)propoxy)phenyl)prop-2-en-1-one], the “reduction of IL-1β vs level after LPS stimulation” value in the series on BV-2 cells (setting [1]) was found to be 2.66 times lower. Besides, the “reduction of IL-6 vs level after LPS stimulation” value in the series with BV-2 cells (setting [1]) is on record as 5.94 times lower. The “reduction of TNF-α vs level after LPS stimulation” value with BV-2 cells (setting [1]) was found to be 1.77 times lower. Moreover, the “effect on CXCL-10 (IP-10)” value with BV-2 cells (in the presence of LPS) is recorded as “repressed”. The “IL-4 level in the presence of LPS” value in the series with BV-2 cells (with LPS) is reported as “did not restore the level of IL-4 to the control point”. Besides, the “IL-4 level, compound alone” value in the series on BV-2 cells (without LPS, vs unstimulated BV-2 cells) is listed as “half the IL-4 content”. Moreover, in the series with human astrocytes (1.56 and 3.12 μM, 48 h, did not persist after 72 h), the “effect on astrocyte viability at low concentrations” value is recorded as “statistically significant proliferation”. Moreover, the negative-log IC50 (pIC50) with human astrocytes (2 h incubation) was 4.38; in the series with human astrocytes (24 h incubation), 4.69; in the series on human astrocytes (48 h incubation), 4.90; with human astrocytes (72 h incubation), 5.01. The “LDH leakage compared with control cells” value in the series with SH-SY5Y cells (50 μM) is approximately 60%. In addition, the “effect on cell membrane integrity (LDH)” value in the series with SH-SY5Y cells (0.0975–25 μM) is “did not disturb the cell membrane”.
